# According to article PMC7244497 (Scientific Reports, 2020):
# Tests used:
# [1] = cited from earlier work
# [2] = test system: DOP receptor dephosphorylation at T361 and S363; assay: DOP receptor dephosphorylation after DPDPE washout with phosphatase inhibitors (Western blot, HEK293 cells); assay type: cell-based, human; details: HEK293 HA-hDOP; inhibitor preincubated 30 min, 1 µM DPDPE 10 min, citrate washout, 0-40 min
Compound,Effective dose in most behavior assays [1],Effect on DOP receptor dephosphorylation at T361 and S363 [2]
"CCN(CC)C(=O)c1ccc(C2=CC3(CCNCC3)Oc3cccc(O)c32)cc1 [ADL5859, N,N-diethyl-4-(5-hydroxyspiro[chromene-2,4′-piperidine]-4-yl)benzamide]",10 mg/kg,–
"CCN(CC)C(=O)c1ccc(C(=C2CCNCC2)c2ccccc2)cc1 [AR-M1000390, N,N-Diethyl-4-(phenylpiperidin-4-ylidenemethyl)benzamide]",10 mg/kg,–
COC[C@@H]([C@H](O)[C@H](O)C(=O)NCC[C@H](C)c1nc(/C=C/C[C@@H]2O[C@]3(C[C@@H](O)[C@@H]2C)O[C@H]([C@H](C[C@H](O)[C@H](C)[C@H](O)[C@H](C)/C=C(C)/C(C)=C/C=C/C(C)=C\C#N)OC)[C@H](OP(=O)(O)O)C3(C)C)co1)N(C)C [calyculin A],–,inhibited in a concentration-dependent manner only by calyculin A
